This note sets out measurements from patent publication US9388176B2, “Method of treating conditiions with kinase inhibitors” (Allergan, Inc., priority 2012, dated 2016).

Assay [1] deals with VEGFR2 (KDR) kinase, purified cytoplasmic domain KDR protein (Homo sapiens (Human), UniProt P35968). Kind of assay: VEGFR2 Kinase Assay. In kind it is biochemical. Particulars: 2.7 μM ATP, poly-Glu-Tyr (4:1) substrate, 15 minute incubation at 30° C., ELISA read at 492 nm. How it is done:
Biochemical KDR kinase assays were performed in 96 well microliter plates that were coated overnight with 75 μg/well of poly-Glu-Tyr (4:1) in 10 mM Phosphate Buffered Saline (PBS), pH 7.4. The coated plates were washed with 2 mls per well PBS+0.05% Tween-20 (PBS-T), blocked by incubation with PBS containing 1% BSA, then washed with 2 mls per well PBS-T prior to starting the reaction. […] Reactions were initiated by the addition 20 ul per well of kinase buffer containing 200-300 ng purified cytoplasmic domain KDR protein (BPS Bioscience, San Diego, Calif.). Following a 15 minute incubation at 30° C., the reactions were washed 2 mls per well PBS-T. 100 μl of a monoclonal anti-phosphotyrosine antibody-peroxidase conjugate diluted 1:10,000 in PBS-T was added to the wells for 30 minutes. Following a 2 mls per well wash with PBS-Tween-20, 100 μl of O-Phenylenediamine Dihydrochloride in phosphate-citrate buffer, containing urea hydrogen peroxide, was added to the wells for 7-10 minutes as a colorimetric substrate for the peroxidase. […] IC50 values for compound inhibition were calculated directly from graphs of optical density (arbitrary units) versus compound concentration following subtraction of blank values.
In general terms: In an ELISA, binding on a coated surface is turned into a signal by an enzyme label.

Assay [2] has as its target PDGFRβ kinase, purified cytoplasmic domain PDGFR-β protein (Homo sapiens (Human), UniProt P09619). Kind of assay: PDGFRβ Kinase Assay. The note with it: 36 μM ATP, poly-Glu-Tyr (4:1) substrate, 60 minute incubation at 30° C., ELISA read at 492 nm. In kind it is biochemical. How it is done: Biochemical PDGFRβ kinase assays were performed in 96 well microliter plates that were coated overnight with 75 μg of poly-Glu-Tyr (4:1) in 10 mM Phosphate Buffered Saline (PBS), pH 7.4. The coated plates were washed with 2 mls per well PBS+0.05% Tween-20 (PBS-T), blocked by incubation with PBS containing 1% BSA, then washed with 2 mls per well PBS-T prior to starting the reaction. Reactions were carried out in 100 μL reaction volumes containing 36 μM ATP in kinase buffer (50 mM Hepes buffer pH 7.4, 20 mM MgCl2, 0.1 mM MnCl2 and 0.2 mM Na3VO4). Test compounds were reconstituted in 100% DMSO and added to the reaction to give a final DMSO concentration of 5%. Reactions were initiated by the addition 20 ul per well of kinase buffer containing 200-300 ng purified cytoplasmic domain PDGFR-β protein (Millipore). Following a 60 minute incubation at 30° C., the reactions were washed 2 mls per well PBS-T. 100 μl of a monoclonal anti-phosphotyrosine antibody-peroxidase conjugate diluted 1:10,000 in PBS-T was added to the wells for 30 minutes. Following a 2 mls per well wash with PBS-Tween-20, 100 μl of 0-Phenylenediamine Dihydrochloride in phosphate-citrate buffer, containing urea hydrogen peroxide, was added to the wells for 7-10 minutes as a colorimetric substrate for the peroxidase. The reaction was terminated by the addition of 100 μl of 2.5N H2SO4 to each well and read using a microplate ELISA reader set at 492 nm. IC50 values for compound inhibition were calculated directly from graphs of optical density (arbitrary units) versus compound concentration following subtraction of blank values. […]

Chain of PDGFRβ kinase, purified cytoplasmic domain PDGFR-β protein (P09619 554-1106): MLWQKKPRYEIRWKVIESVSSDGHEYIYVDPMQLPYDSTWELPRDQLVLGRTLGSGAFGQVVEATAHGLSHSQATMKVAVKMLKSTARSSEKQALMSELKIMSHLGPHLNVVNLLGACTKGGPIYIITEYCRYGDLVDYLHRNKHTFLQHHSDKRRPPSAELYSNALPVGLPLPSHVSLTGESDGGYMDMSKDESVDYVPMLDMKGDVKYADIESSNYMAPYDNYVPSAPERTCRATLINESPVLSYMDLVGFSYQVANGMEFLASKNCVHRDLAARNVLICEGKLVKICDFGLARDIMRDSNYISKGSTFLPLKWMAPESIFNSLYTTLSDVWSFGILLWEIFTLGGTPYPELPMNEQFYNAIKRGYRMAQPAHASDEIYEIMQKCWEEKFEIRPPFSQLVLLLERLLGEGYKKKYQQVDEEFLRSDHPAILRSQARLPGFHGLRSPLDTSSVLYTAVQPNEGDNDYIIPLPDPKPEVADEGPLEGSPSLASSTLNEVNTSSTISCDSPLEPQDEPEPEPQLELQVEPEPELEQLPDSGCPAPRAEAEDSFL
Chain of VEGFR2 (KDR) kinase, purified cytoplasmic domain KDR protein (P35968 786-1356): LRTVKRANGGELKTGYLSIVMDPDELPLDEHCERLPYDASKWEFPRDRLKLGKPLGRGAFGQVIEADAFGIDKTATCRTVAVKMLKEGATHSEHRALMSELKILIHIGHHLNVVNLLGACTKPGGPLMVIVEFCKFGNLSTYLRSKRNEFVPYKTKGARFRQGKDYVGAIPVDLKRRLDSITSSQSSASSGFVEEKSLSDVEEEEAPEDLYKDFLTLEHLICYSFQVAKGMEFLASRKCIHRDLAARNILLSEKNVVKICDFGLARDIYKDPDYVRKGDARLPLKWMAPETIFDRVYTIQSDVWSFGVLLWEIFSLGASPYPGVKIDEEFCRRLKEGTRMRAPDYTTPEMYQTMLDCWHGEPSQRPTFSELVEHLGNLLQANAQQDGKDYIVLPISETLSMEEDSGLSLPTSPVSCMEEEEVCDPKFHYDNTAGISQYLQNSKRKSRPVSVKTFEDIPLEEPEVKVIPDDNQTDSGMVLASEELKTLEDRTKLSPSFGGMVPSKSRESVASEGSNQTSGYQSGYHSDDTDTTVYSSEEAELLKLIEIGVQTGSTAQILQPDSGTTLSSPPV

In assay [1], “4-(2-Methylsulfanyl-5,7-dihydro-pyrrolo[3,4-d]pyrimidin-6-yl)-pyridine-2-carboxylic acid (3-trifluoromethyl-phenyl)-amide [Example 126]” registered an IC50 of more than 10000 nM.

In turn, `CC(C)c1cccc(NC(=O)c2cccc(N3CCc4nc(N)ncc4C3)c2)c1` [Example 2, 3-(2-amino-7,8-dihydropyrido[4,3-d]pyrimidin-6(5H)-yl)-N-(3-isopropylphenyl)benzamide] displayed an IC50 in assay [2] of 21 nM.

On to `Nc1ncc2c(n1)CCN(c1cccc(C(=O)Nc3cccc(C(F)(F)F)c3)c1)C2` [Example 5, 3-(2-amino-7,8-dihydropyrido[4,3-d]pyrimidin-6(5H)-yl)-N-(3-(trifluoromethyl)phenyl)benzamide], for which the IC50 in assay [2] was 26 nM.

With `COc1cccc(NC(=O)c2cccc(N3CCc4nc(N)ncc4C3)c2)c1` [Example 7, 3-(2-amino-7,8-dihydropyrido[4,3-d]pyrimidin-6(5H)-yl)-N-(3-methoxyphenyl)benzamide], the IC50 in assay [2] worked out at 1240 nM.

As for `CCc1ccc(NC(=O)c2cccc(N3CCc4nc(N)ncc4C3)c2)cc1` [Example 8, 3-(2-amino-7,8-dihydropyrido[4,3-d]pyrimidin-6(5H)-yl)-N-(4-ethylphenyl)benzamide], the midpoint of inhibition in assay [2], the IC50, lay at 134 nM.

`CCc1cccc(NC(=O)c2cccc(N3CCc4nc(N)ncc4C3)c2)c1` [Example 9, 3-(2-amino-7,8-dihydropyrido[4,3-d]pyrimidin-6(5H)-yl)-N-(3-ethylphenyl)benzamide] came in with an IC50 in assay [2] of 52 nM.

In the case of `CCCc1ccc(NC(=O)c2cccc(N3CCc4nc(N)ncc4C3)c2)cc1` [Example 10, 3-(2-amino-7,8-dihydropyrido[4,3-d]pyrimidin-6(5H)-yl)-N-(4-propylphenyl)benzamide], the IC50 in assay [2] stood at 32 nM.

Consider `CN1CCC(Oc2ccc(NC(=O)c3cccc(N4CCc5nc(N)ncc5C4)c3)cc2)CC1` [Example 11, 3-(2-amino-7,8-dihydropyrido[4,3-d]pyrimidin-6(5H)-yl)-N-(4-((1-methylpiperidin-4-yl)oxy)phenyl)benzamide], for which the IC50 in assay [2] is more than 1000 nM.

`CC(C)c1ccc(NC(=O)c2cccc(N3CCc4nc(N)ncc4C3)c2)cc1` [Example 12, 3-(2-amino-7,8-dihydropyrido[4,3-d]pyrimidin-6(5H)-yl)-N-(4-isopropylphenyl)benzamide]: the IC50 in assay [2] stood at 24 nM.

Consider `CCCCNC(=O)c1cccc(N2CCc3nc(N)ncc3C2)c1` [Example 16, 3-(2-amino-7,8-dihydropyrido[4,3-d]pyrimidin-6(5H)-yl)-N-butylbenzamide], for which, in assay [2], the IC50 is more than 10000 nM.

For the compound `Nc1ncc2c(n1)CCN(c1cccc(C(=O)NC3CCCC3)c1)C2` [Example 19, 3-(2-amino-7,8-dihydropyrido[4,3-d]pyrimidin-6(5H)-yl)-N-cyclopentylbenzamide], in assay [2], the IC50 is more than 10000 nM.

In assay [2], `CC(C)(C)CCNC(=O)c1cccc(N2CCc3nc(N)ncc3C2)c1` [Example 20, 3-(2-amino-7,8-dihydropyrido[4,3-d]pyrimidin-6(5H)-yl)-N-(3,3-dimethylbutyl)benzamide] registered an IC50 of 164 nM.

In turn, `CCN(CC)C(=O)c1cccc(N2CCc3nc(N)ncc3C2)c1` [Example 21, 3-(2-amino-7,8-dihydropyrido[4,3-d]pyrimidin-6(5H)-yl)-N,N-diethylbenzamide] returned an IC50 in assay [2] of more than 1000 nM.

`Cc1cccc(NC(=O)c2cccc(N3CCc4nc(N)ncc4C3)n2)c1` [Example 37, 6-(2-amino-7,8-dihydropyrido[4,3-d]pyrimidin-6(5H)-yl)-N-(3-methylphenyl)pyridine-2-carboxamide] returned an IC50 in assay [2] of more than 10000 nM.

In the case of `CSc1ncc2c(n1)CCN(c1cc(C)cc(C(=O)Nc3cccc(C(F)(F)F)c3)c1)C2` [Example 140, 3-methyl-5-[2-(methylthio)-7,8-dihydropyrido[4,3-d]pyrimidin-6(5H)-yl]-N-[3-(trifluoromethyl)phenyl]benzamide], the IC50 in assay [1] is more than 1000 nM.

`CSc1ncc2c(n1)CCN(c1cc(C)cc(C(=O)Nc3cccc(C(C)C)c3)c1)C2` [Example 142, N-(3-isopropylphenyl)-3-methyl-5-[2-(methylthio)-7,8-dihydropyrido[4,3-d]pyrimidin-6(5H)-yl]benzamide] registered a concentration for half-maximal inhibition (IC50) in assay [1] of more than 1000 nM.

`O=C(Nc1ccc(N2CCc3ccncc3C2)cc1)c1cccc(C(F)(F)F)c1` [Example 162, N-[4-(3,4-dihydro-2,7-naphthyridin-2(1H)-yl)phenyl]-3-(trifluoromethyl)benzamide]: the IC50 in assay [2] was more than 10000 nM.

Regarding `O=C(Nc1ccccc1)Nc1ccc(N2CCc3ccncc3C2)cc1` [Example 164, 1-[4-(3,4-dihydro-2,7-naphthyridin-2(1H)-yl)phenyl]-3-phenylurea], the 50% inhibitory concentration (IC50) in assay [2] was more than 10000 nM.

With `Cc1ccc(NC(=O)Nc2ccc(N3CCc4ccncc4C3)cc2)cc1` [Example 165, 1-[4-(3,4-dihydro-2,7-naphthyridin-2(1H)-yl)phenyl]-3-(4-methylphenyl)urea], the IC50 in assay [2] and in assay [1] was more than 1000 nM in each case.

A word on the IC50: it is the point on the concentration scale where inhibition reaches its midpoint. A high value points to weaker potency.
